One may read the EC50 as the concentration that produces a half-maximal response.

Our source for the EC50 values is patent publication US20240132450A1, “MODULATORS OF G PROTEIN-COUPLED RECEPTOR 88” (ACADIA Pharmaceuticals Inc., priority 2020, published 2024).

Structures are written as SMILES. Bounds are passed on as bounds.

The target of this assay is hGPR88 receptor (Homo sapiens, UniProt Q9GZN0). Briefly: hGPR88-HEK cAMP accumulation assay. The note with it: GRP88 agonist activity (EC50), HEK-293 cells expressing human recombinant GPR88, forskolin 200 nM, High/Medium/Low bands. (cAMP levels reflect the balance of adenylyl cyclase and phosphodiesterase activity.)
Chain of hGPR88 receptor (Q9GZN0 whole entry): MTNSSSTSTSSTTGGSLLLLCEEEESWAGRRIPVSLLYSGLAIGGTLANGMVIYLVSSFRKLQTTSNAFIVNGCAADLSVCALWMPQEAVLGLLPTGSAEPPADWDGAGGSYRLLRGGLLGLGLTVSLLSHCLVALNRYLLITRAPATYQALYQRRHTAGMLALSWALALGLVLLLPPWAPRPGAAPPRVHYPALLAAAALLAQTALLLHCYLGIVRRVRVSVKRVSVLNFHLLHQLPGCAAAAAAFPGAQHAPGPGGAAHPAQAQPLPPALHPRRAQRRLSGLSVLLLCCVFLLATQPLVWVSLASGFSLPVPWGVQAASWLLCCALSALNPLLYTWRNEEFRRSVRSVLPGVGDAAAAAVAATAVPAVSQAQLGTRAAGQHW
Method: Biological Assay 1: hGPR88-HEK cAMP Accumulation Assay
Cryopreserved vials of HEK-293 cells expressing human recombinant GPR88 receptor are re-suspended in KRH assay buffer and 5 μl of cell solution is suspended in test wells at a seeding density of 2500±500 cells per well using the multidrop to provide a final reaction volume of 10 μl containing 0.5% DMSO. Assay plate is incubated for 30 min at room temperature and the reaction is terminated by addition of 5 μl of each of the cAMP detection reagents of the cAMP Gi kit (Cisbio Bioassays, 62AM9PEJ), diluted in cell lysis buffer, to each well using the multidrop in the following order: first the cAMP-d2 conjugate, then the anti-cAMP cryptate conjugate. […] Raw counts were converted to cAMP concentrations via a standard curve before EC50 and Emax determination. Data is expressed as % decrease in forskolin stimulated cAMP compared to cells treated with vehicle alone in the same buffer and on the same plate.
With `COCc1ccc(-c2ccc(NC(=O)C(C)(C)Oc3ccccc3F)cc2)cc1` [Example 103, 2-(2-fluorophenoxy)-N-(4′-(methoxymethyl)-[1,1′-biphenyl]-4-yl)-2-methylpropanamide], the concentration for a half-maximal effect (EC50) was 1 to 5 µM.

As for `CC(c1ccc(-c2ccc(NC(=O)C(C)(C)Oc3ccc(F)cc3)cc2)cc1)N1CCOCC1` (single isomer, unassigned) [Example 122, 2-(4-fluorophenoxy)-2-methyl-N-(4′-(1-morpholinoethyl)-[1,1′-biphenyl]-4-yl)propanamide], the EC50 lay within 1 to 5 µM. `COCc1ccc(-c2ccc(NC(=O)C(C)(C)Cc3ccc(F)cc3)cc2)cc1` [Example 55, 3-(4-fluorophenyl)-N-(4′-(methoxymethyl)-[1,1′-biphenyl]-4-yl)-2,2-dimethylpropanamide]: the concentration giving a half-maximal response (EC50) is < 1 µM. The value for `O=C(Nc1ccc(-c2ccc(CN3CCOCC3)cc2)cc1)C1(Oc2ccc(F)cc2)CC1` [Example 129, 1-(4-fluorophenoxy)-N-(4′-(morpholinomethyl)-[1,1′-biphenyl]-4-yl)cyclo propane-1-carboxamide] was < 1 µM.

As for `CC(C)(Oc1ccc(F)cc1)C(=O)Nc1ccc(-c2ccc(OC3CC3)cc2)cc1` [Example 41, N-(4′-cyclopropoxy-[1,1′-biphenyl]-4-yl)-2-(4-fluorophenoxy)-2-methylpropanamide], the 50% effective concentration (EC50) is > 5 µM. Take `CC(C)(Oc1ccc(C#N)cc1)C(=O)Nc1ccc(-c2ccc(CN3CCOCC3)cc2)cc1` [Example 124, 2-(4-cyanophenoxy)-2-methyl-N-(4′-(morpholinomethyl)-[1,1′-biphenyl]-4-yl)propenamide]: the half-maximal effective concentration (EC50) is < 1 µM. On to `COCc1ccc(-c2ccc(NC(=O)C(C)(C)Oc3ccccc3C)cc2)cc1` [Example 64, N-(4′-(methoxymethyl)-[1,1′-biphenyl]-4-yl)-2-methyl-2-(o-tolylox)propenamide], for which the half-maximal effective concentration (EC50) was < 1 µM. For `CC(C)Oc1ccc(-c2ccc(NC(=O)C(C)(C)Oc3ccc(F)cc3)cc2)cc1` [Example 46, 2-(4-fluorophenoxy)-N-(4′-isopropoxy-[1,1′-biphenyl]-4-yl)-2-methylpropanamide], the EC50 was < 1 µM. In the case of `COCc1ccc(-c2ccc(NC(=O)C(C)(C)Oc3cccc(OC)c3)cc2)cc1` [Example 98, N-(4′-(methoxymethyl)-[1,1′-biphenyl]-4-yl)-2-(3-methoxyphenoxy)-2-methylpropanamide], the EC50 fell in the range of 1 to 5 µM. For `COc1ccc(OC(C)(C)C(=O)Nc2ccc(-c3cnc(N(C)C)nc3)cc2)cc1` [Example 95, N-(4-(2-(dimethylamino)pyrimidin-5-yl)phenyl)-2-(4-methoxyphenoxy)-2-methylpropanamide], the EC50 is 1 to 5 µM. For `CC(C)(Oc1ccc(F)cc1)C(=O)Nc1ccc(-c2ccc3c(c2)OCO3)cc1` [Example 88, N-(4-(benzo[d][1,3]dioxol-5-yl)phenyl)-2-(4-fluorophenoxy)-2-methylpropanamide], the concentration for a half-maximal effect (EC50) lay within 1 to 5 µM. Consider `COCc1ccc(C23CC(NC(=O)C4CC4c4ccccn4)(C2)C3)cc1` (racemic) [Example 110, (rac-trans)-N-(3-(4-(methoxymethyl)phenyl)bicyclo[1.1.1]pentan-1-yl)-2-(pyridin-2-yl)cyclopropane-1-carboxamide], for which the EC50 lay within 1 to 5 µM.

On to `CC(C)(Oc1ccc(F)cc1)C(=O)Nc1ccc(-c2ccc(S(C)(=O)=O)cc2)cc1` [Example 52, 2-(4-fluorophenoxy)-2-methyl-N-(4′-(methylsulfonyl)-[1,1′-biphenyl]-4-yl)propenamide], for which the EC50 was > 5 µM. The value for `CN(C)c1ncc(-c2ccc(NC(=O)C3CC3c3ccccn3)cc2)cn1` (stereo not drawn) [Example 126, N-(4-(2-(dimethylamino)pyrimidin-5-yl)phenyl)-2-(pyridin-2-yl)cyclopropane-1-carboxamide] was > 5 µM; that for `COCc1ccc(-c2ccc(N(CC(C)(C)O)C(=O)C3CC3c3ccccn3)cc2)cc1` (stereo not drawn) [Example 141, N-(2-hydroxy-2-methylpropyl)-N-(4′-(methoxymethyl)-[1,1′-biphenyl]-4-yl)-2-(pyridin-2-yl)cyclopropane-1-carboxamide] was > 5 µM; that for `COCc1ccc(-c2ccc(NC(=O)C(C)(C)Oc3ccc(C)cc3)cc2)cc1` [Example 128, N-(4′-(methoxymethyl)-[1,1-biphenyl]-4-yl)-2-methyl-2-(p-tolyloxy) propenamide] was < 1 µM. Regarding `COCc1ccc(-c2ccc(NC(=O)C(C)(C)Oc3ccccc3OC)cc2)cc1` [Example 101, N-(4′-(methoxymethyl)-[1,1′-biphenyl]-4-yl)-2-(2-methoxyphenoxy)-2-methylpropanamide], the EC50 lay in the range of 1 to 5 µM.

`CN1CCN(Cc2ccc(-c3ccc(NC(=O)C(C)(C)Oc4ccc(F)cc4)cc3)cc2)CC1` [Example 72, 2-(4-fluorophenoxy)-2-methyl-N-(4′-((4-methylpiperazin-1-yl)methyl)-[1,1′-biphenyl]-4-yl)propanamide]: the concentration for a half-maximal effect (EC50) was in the range of 1 to 5 µM. The value for `COCc1ccc(-c2ccc(N(CC3CC3)C(=O)C(C)(C)Oc3ccc(F)cc3)cc2)cc1` [Example 29, N-(cyclopropylmethyl)-2-(4-fluorophenoxy)-N-(4′-(methoxymethyl)-[1,1′-biphenyl]-4-yl)-2-methylpropanamide] was 1 to 5 µM.

For `COCc1ccc(-c2ccc(NC(=O)C(C)(C)Oc3c(F)cccc3F)cc2)cc1` [Example 99, 2-(2,6-difluorophenoxy)-N-(4′-(methoxymethyl)-[1,1′-biphenyl]-4-yl)-2-methylpropanamide], the concentration giving a half-maximal response (EC50) is 1 to 5 µM. On to `COCc1ccc(-c2ccc(NC(=O)C(C)(C)Oc3cccc(Cl)c3)cc2)cc1` [Example 65, 2-(3-chlorophenoxy)-N-(4′-(methoxymethyl)-[1,1′-biphenyl]-4-yl)-2-methylpropanamide], for which the EC50 was < 1 µM. As to `COCc1ccc(-c2ccc(NC(=O)C(C)(C)Oc3ccc(F)cc3)cc2)cc1F` [Example 93, N-(3′-fluoro-4′-(methoxymethyl)-[1,1′-biphenyl]-4-yl)-2-(4-fluorophenoxy)-2-methylpropanamide], the EC50 is > 5 µM. `COCc1ccc(-c2ccc3c(c2)CCCN3C(=O)C2CC2c2ccccn2)cc1` (racemic) [Example 43, (6-(4-(methoxymethyl)phenyl)-3,4-dihydroquinolin-1(2H)-yl)((rac-trans)-2-(pyridin-2-yl)cyclopropyl)methanone]: the concentration for a half-maximal effect (EC50) is > 5 µM. To `COCc1ccc(-c2ccc(NC(=O)C(C)(C)Oc3cccnn3)cc2)cc1` [Example 69, N-(4′-(methoxymethyl)-[1,1′-biphenyl]-4-yl)-2-methyl-2-(pyridazin-3-yloxy)propenamide] belongs > 5 µM. Take `COCc1ccc(-c2ccc(NC(=O)C3CC3c3ccccn3)cc2)cc1` (single isomer, unassigned) [Example 19, N-(4′-(methoxymethyl)-[1,1′-biphenyl]-4-yl)-2-(pyridin-2-yl)cyclopropane-1-carboxamide]: the EC50 was > 5 µM.

With `CC(C)Oc1ccc(-c2ccc(NC(=O)C3CC3c3ccccn3)cc2)cn1` (single isomer, unassigned) [Example 133, N-(4-(6-isopropoxypyridin-3-yl)phenyl)-2-(pyridin-2-yl)cyclopropane-1-carboxamide], the EC50 was in the range of 1 to 5 µM.

In the case of `O=C(Nc1ccc(-c2ccc(OC3CC3)cc2)cc1)C1CC1c1ccccn1` (single isomer, unassigned) [Example 130, N-(4′-cyclopropoxy-[1,1′-biphenyl]-4-yl)-2-(pyridin-2-yl)cyclopropane-1-carboxamide], the half-maximal effective concentration (EC50) is > 5 µM.

Turning to `O=C(Nc1ccc(-c2ccc(CN3CCOCC3)cc2)cn1)C1CC1c1ccccn1` (racemic) [Example 83, (rac-trans)-N-(5-(4-(morpholinomethyl)phenyl)pyridin-2-yl)-2-(pyridin-2-yl)cyclopropane-1-carboxamide], the 50% effective concentration (EC50) was 1 to 5 µM. In the case of `CN(C)c1ncc(-c2ccc(NC(=O)C3(Oc4ccc(F)cc4)CC3)cc2)cn1` [Example 107, N-(4-(2-(dimethylamino)pyrimidin-5-yl)phenyl)-1-(4-fluorophenoxy)cyclopropane-1-carboxamide], the EC50 lay in the range of 1 to 5 µM. To `O=C(c1ccc(-c2ccc(NC(=O)C3(Oc4ccc(F)cc4)CC3)cc2)cc1)N1CCOCC1` [Example 105, 1-(4-fluorophenoxy)-N-(4′-(morpholine-4-carbonyl)-[1,1′-biphenyl]-4-yl)cyclopropane-1-carboxamide] belongs 1 to 5 µM. Take `CC(C)(Oc1ccc(F)cc1)C(=O)Nc1ccc(-c2ccc(CN3CCOCC3)cc2)cn1` [Example 81, 2-(4-fluorophenoxy)-2-methyl-N-(5-(4-(morpholinomethyl)phenyl)pyridin-2-yl)propanamide]: the EC50 is < 1 µM.

`O=C(Nc1ccc(-c2ccc(CN3CCOCC3)cc2)cc1)C1CC1c1ccccn1` (racemic) [Example 37, (1R*,2R*)-N-(4′-(morpholinomethyl)-[1,1′-biphenyl]-4-yl)-2-(pyridin-2-yl)cyclopropane-1-carboxamide]: the EC50 lay in the range of 1 to 5 µM. In the case of `COCc1ccc(-c2ccc(NC(=O)C(C)(C)Oc3ccc(F)cc3)nc2)cc1` [Example 40, 2-(4-fluorophenoxy)-N-(5-(4-(methoxymethyl)phenyl)pyridin-2-yl)-2-methylpropanamide], the 50% effective concentration (EC50) lay within 1 to 5 µM. As to `COCc1ccc(-c2ccc(NC(=O)C(C)(C)Oc3ccc(Cl)c(C)c3)cc2)cc1` [Example 97, 2-(4-chloro-3-methylphenoxy)-N-(4′-(methoxymethyl)-[1,1′-biphenyl]-4-yl)-2-methylpropanamide], the EC50 is 1 to 5 µM. Regarding `CC(C)(C)OCc1ccc(-c2ccc(NC(=O)C(C)(C)Oc3ccc(F)cc3)cc2)cc1` [Example 89, N-(4′-(tert-butoxymethyl)-[1,1′-biphenyl]-4-yl)-2-(4-fluorophenoxy)-2-methylpropanamide], the EC50 is < 1 µM. With `CCOc1ncc(-c2ccc(NC(=O)C(C)(C)Oc3ccc(F)cc3)cc2)cn1` [Example 30, N-(4-(2-ethoxypyrimidin-5-yl)phenyl)-2-(4-fluorophenoxy)-2-methylpropanamide], the 50% effective concentration (EC50) is 1 to 5 µM.
